# Laboratory results reported in BindingDB's records for doi:10.1016/j.ejmech.2019.111863 (University of Malakand, 2020).
# Target: Prostaglandin G/H synthase 2 (Homo sapiens) (UniProt P35354)
# Assay: Inhibition of recombinant human COX2 expressed in baculovirus infected Sf21 cells using arachidonic acid as substrate preincubated for 5 mins followed by substrate addition and measured after 5 mins by UV-visible spectrophotometric method
# Prostaglandin G/H synthase 2 (Homo sapiens), sequence (P35354 whole entry, looked up): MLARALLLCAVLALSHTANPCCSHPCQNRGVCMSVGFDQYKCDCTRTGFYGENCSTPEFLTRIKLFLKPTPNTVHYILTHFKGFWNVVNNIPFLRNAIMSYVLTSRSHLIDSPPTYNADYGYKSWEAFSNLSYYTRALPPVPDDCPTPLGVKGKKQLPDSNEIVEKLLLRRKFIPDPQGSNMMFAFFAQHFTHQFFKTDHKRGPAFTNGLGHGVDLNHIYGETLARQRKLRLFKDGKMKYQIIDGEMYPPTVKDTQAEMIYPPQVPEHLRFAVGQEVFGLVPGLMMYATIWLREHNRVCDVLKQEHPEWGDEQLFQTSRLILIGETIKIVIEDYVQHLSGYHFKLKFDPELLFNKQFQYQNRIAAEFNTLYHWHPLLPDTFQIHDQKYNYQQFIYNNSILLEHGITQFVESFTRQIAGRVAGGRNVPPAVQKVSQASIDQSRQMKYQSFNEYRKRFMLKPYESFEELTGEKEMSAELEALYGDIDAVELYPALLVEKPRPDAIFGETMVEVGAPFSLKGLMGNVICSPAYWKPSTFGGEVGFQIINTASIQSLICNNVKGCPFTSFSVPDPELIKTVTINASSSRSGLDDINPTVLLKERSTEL
row,Compound,IC50 [µM]
1,CC1CCC(=O)C(C2CC(=O)N(c3ccccc3)C2=O)C1 (centres undefined),56.5
2,O=C1CCCC1C1CC(=O)N(c2ccccc2)C1=O (centres undefined),51.4
3,CC1CCC(=O)C(C2CC(=O)N(Cc3ccccc3)C2=O)C1 (centres undefined),21.9
4,O=C1CCOCC1C1CC(=O)N(c2ccccc2)C1=O (centres undefined),56.6
5,O=C1CCCCCC1C1CC(=O)N(c2ccccc2)C1=O (centres undefined),39.5
6,NS(=O)(=O)c1ccc(N2C(=O)CC(C3CCCCCC3=O)C2=O)cc1 (centres undefined),20.7
7,O=C1CCCCC1C1CC(=O)N(c2ccccc2)C1=O (centres undefined),45.1
8,O=C1CCCCC1C1CC(=O)N(c2ccc(Br)cc2)C1=O (centres undefined),113

# Compounds with a lower IC50, results first:
row,IC50 [µM],Compound
1,8.94,NS(=O)(=O)c1ccc(N2C(=O)CC(CC(=O)c3ccccn3)C2=O)cc1 (centres undefined)
2,6.29,NS(=O)(=O)c1ccc(N2C(=O)CC(CC(=O)c3ccc(Cl)cc3)C2=O)cc1 (centres undefined)
3,4.23,NS(=O)(=O)c1ccc(N2C(=O)CC(CC(=O)c3ccccc3)C2=O)cc1 (centres undefined)
4,0.98,Cc1ccc(C(=O)CC2CC(=O)N(c3ccc(S(N)(=O)=O)cc3)C2=O)cc1 (centres undefined)
5,20,O=C1CCCCC1C1CC(=O)N(Cc2ccccc2)C1=O (centres undefined)
6,2.1,COc1ccc(C(=O)CC2CC(=O)N(c3ccc(S(N)(=O)=O)cc3)C2=O)cc1 (centres undefined)
